Assay results: patent EP0494819B1, “Phenylimidazolidines, their process for fabrication, their application as medicaments and the pharmaceutical compositions containing them” (ROUSSEL UCLAF, priority 1991, dated 1992)

Columns and labels:
récepteur androgène = target: T1, récepteur androgène (Rattus norvegicus, UniProt P15207); assay: Affinity for the androgen receptor: relative binding affinity (ARL), displacement of tritiated testosterone in prostate cytosol of castrated rats; parameters: species or system rats mâles Sprague Dawley EOPS; conditions: testosterone = 100, ARL=100 (CH)/(CX); for ARL (affinité relative de liaison), Incubation : 30 minutes: incubation 30 minutes at 0°C; for ARL (affinité relative de liaison), Incubation : 24 heures: incubation 24 hours at 0°C
T1 construct: Des aliquotes du surnageant obtenu (=cytosol), sont incubées 30 minutes et 24 heures à 0°C; from tissue; host or cells: prostate cytosol (105 000 g supernatant) of castrated male Sprague Dawley rats
T1 sequence (P15207 1-902): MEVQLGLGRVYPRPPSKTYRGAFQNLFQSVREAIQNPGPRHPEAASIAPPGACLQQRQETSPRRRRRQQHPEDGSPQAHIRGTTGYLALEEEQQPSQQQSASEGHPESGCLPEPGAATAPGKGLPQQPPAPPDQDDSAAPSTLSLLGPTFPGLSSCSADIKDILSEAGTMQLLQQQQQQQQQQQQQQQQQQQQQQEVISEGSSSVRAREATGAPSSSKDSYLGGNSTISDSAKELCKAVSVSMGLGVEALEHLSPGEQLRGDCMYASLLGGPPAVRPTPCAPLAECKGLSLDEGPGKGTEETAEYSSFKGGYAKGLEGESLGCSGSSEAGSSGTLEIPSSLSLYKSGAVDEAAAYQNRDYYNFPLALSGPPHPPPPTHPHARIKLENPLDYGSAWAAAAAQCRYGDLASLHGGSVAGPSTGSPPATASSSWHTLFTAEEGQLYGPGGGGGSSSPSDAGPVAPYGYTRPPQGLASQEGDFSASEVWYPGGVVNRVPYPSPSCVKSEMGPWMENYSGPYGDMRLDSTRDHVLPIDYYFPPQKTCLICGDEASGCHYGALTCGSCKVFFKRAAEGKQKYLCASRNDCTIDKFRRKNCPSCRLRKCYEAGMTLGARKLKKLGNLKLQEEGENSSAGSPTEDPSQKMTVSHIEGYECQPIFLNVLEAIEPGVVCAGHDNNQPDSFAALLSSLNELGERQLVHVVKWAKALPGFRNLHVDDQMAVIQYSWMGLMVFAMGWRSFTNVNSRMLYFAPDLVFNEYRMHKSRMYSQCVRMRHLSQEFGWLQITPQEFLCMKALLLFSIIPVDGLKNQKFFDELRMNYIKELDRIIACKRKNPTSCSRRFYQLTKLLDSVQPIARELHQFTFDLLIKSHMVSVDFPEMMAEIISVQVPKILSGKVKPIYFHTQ
Experimental: 1) Etude de l'affinité des produits de l'invention pour le récepteur androgène
Des rats mâles Sprague Dawley EOPS de 180-200 g, castrés de 24 heures, sont sacrifiés, les prostates prélevées, pesées et homogénéisées à 0°C à l'aide d'un potter verre-verre, dans une solution tamponnée (Tris 10mM, saccharose 0,25M, PMSF (phénylméthanesulfonylfluoride) 0,1mM, Molybdate de sodium 20mM, HCl pH 7,4; auxquels on ajoute extemporanément 2mM de DTT (DL dithiothreitol), à raison de 1 g de tissu pour 8 ml de tampon.
L'homogénat est ensuite ultracentrifugé à 0°C, 45 minutes à 105 000 g.
Calcul de l'affinité relative de liaison (ARL).
On trace les 2 courbes suivantes : le pourcentage de l'hormone tritiée liée B/T en fonction du logarithme de la concentration de l'hormone de référence froide et B/T en fonction du logarithme de la concentration du produit froid testé. On détermine la droite d'équation I50=(B/Tmax + B/Tmin)/2. B/T max= % de l'hormone tritiée liée pour une incubation de cette hormone tritiée à la concentration (T). B/T min= % de l'hormone tritiée liée pour une incubation de cette hormone tritiée à la concentration (T) en présence d'un grand excès d'hormone froide (2500.10^-9M).
Les intersections de la droite I50 et des courbes, permettent d'évaluer les concentrations de l'hormone de référence froide (CH) et du produit froid testé (CX) qui inhibent de 50 % la liaison de l'hormone tritiée sur le récepteur.

[1] = system: ornithine décarboxylase rénale; assay: Androgen or anti-androgen activity by assay of renal ornithine decarboxylase in castrated mice, oral treatment; assay type: in vivo, souris mâles SWISS; conditions: kidneys taken 16 h after treatment; for Antagonisme (PO): with testosterone propionate 3 mg/kg s.c.
Experimental: 2) Détermination de l'activité androgène ou anti-androgène des produits de l'invention à l'aide du dosage de l'ornithine de carboxylase.
16 heures après les traitements, les animaux sont sacrifiés, les reins prélevés, puis homogénéisés à 0°C , à l'aide d'un broyeur téflon-verre dans 10 volumes de tampon Tris-HCl 50 mM (pH 7,4) contenant 250 uM de phosphate de pyridoxal, 0,1 mM EDTA, et 5 mM de dithiothreitol. L'homogenat est ensuite centrifugé à 105000 g pendant 45 mn.
A 37°C, l'ornithine décarboxylase rénale transforme un mélange isotopique d'ornithine froide et d'ornithine tritiée en putrescine froide et putrescine tritiée.
La putrescine est ensuite recueillie sur des papiers sélectifs, échangeurs d'ions. Après séchage, l'excès d'ornithine tritiée et froide non transformée est éliminé, par 3 lavages d'ammoniaque 0,1 M. Les papiers sont séchés, puis la radioactivité est comptée après addition de scintillant Aqualite.
Les résultats sont exprimés en fmoles ([…]) de putrescine tritiée formée/heure/mg de protéines.

| Compound | ARL (affinité relative de liaison), Incubation : 30 minutes (récepteur androgène) | ARL (affinité relative de liaison), Incubation : 24 heures (récepteur androgène) | Antagonisme (PO) ([1]; 3 mg/kg PO) | Antagonisme (PO) ([1]; 0,3 mg/kg PO) | Antagonisme (PO) ([1]; 1 mg/kg PO) | Antagonisme (PO) ([1]; 0,1 mg/kg PO) | Antagonisme (PO) ([1]; 10 mg/kg PO) | Angonisme (PO) ([1]; 10 mg/kg PO, without testosterone propionate) |
| --- | --- | --- | --- | --- | --- | --- | --- | --- |
| CCN1C(=O)N(c2ccc([N+](=O)[O-])c(C(F)(F)F)c2)C(=O)C1(C)C [Produit de l'exemple 2, 5,5-diméthyl-1-éthyl-3-(4-nitro-3-(trifluorométhyl)phényl)-2,4-imidazolidinedione] | 22 | 6 | – | – | – | – | – | – |
| CC1(C)NC(=S)N(c2ccc(C#N)c(C(F)(F)F)c2)C1=N [Produit de l'exemple 14, 4-(4,4-diméthyl-5-imino-2-thioxo-1-imidazolidinyl)-2-(trifluorométhyl)-benzonitrile] | 27 | 7 | 3 mg/kg : 87% | – | – | – | – | – |
| CC(C)N1C(=O)N(c2ccc([N+](=O)[O-])c(C(F)(F)F)c2)C(=O)C1(C)C [Produit de l'exemple 4, 5,5-diméthyl-1-(1-méthyl éthyl)-3-(4-nitro-3-(trifluorométhyl)phényl)-2,4-imidazolidinedione] | 21 | 5 | – | – | – | – | – | – |
| CN1C(=O)N(c2ccc([N+](=O)[O-])c(C(F)(F)F)c2)C(=O)C1(C)C [Produit de l'exemple 1, 1-(4-nitro-3-(trifluorométhyl)phényl)-3,4,4-triméthyl-2,5-imidazolidinedione] | 27,5 | 3 | – | – | – | – | – | – |
| CC1(C)NC(=S)N(c2ccc(C#N)c(C(F)(F)F)c2)C1=O [Produit de l'exemple 15, 4-(4,4-diméthyl-5-oxo-2-thioxo-1-imidazolidinyl)-2-(trifluorométhyl)-benzonitrile] | 69 | 24 | – | 0,3 mg/kg : 4% | 1 mg/kg : 82% | – | – | – |
| CN1C(=S)N(c2ccc(C#N)c(C(F)(F)F)c2)C(=N)C1(C)C [Produit de l'exemple 11, 4-(5-imino-2-thioxo-3,4,4-triméthyl-1-imidazolidinyl)-2-(trifluorométhyl)-benzonitrile] | 28 | 8 | 3 mg/kg : 83% | – | – | – | – | – |
| CN1C(=S)N(c2ccc(C#N)c(C(F)(F)F)c2)C(=O)C1(C)C [Produit de l'exemple 12, 4-(5-oxo-2-thioxo-3,4,4-triméthyl-1-imidazolidinyl)-2-(trifluorométhyl)-benzonitrile] | 128 | 92 | 3 mg/kg : 94% | 0,3 mg/kg : 36% | 1 mg/kg : 68% | 0,1 mg/kg : 12% | 10 mg/kg : 99% | 10 mg/kg : 0% |
| CN1C(=S)N(c2ccc(C#N)c(C(F)(F)F)c2)C(=S)C1(C)C [Produit de l'exemple 13, 4-(2,5-dithioxo-3,4,4-triméthyl-1-imidazolidinyl)-2-(trifluorométhyl)-benzonitrile] | 31 | 39 | – | – | – | – | – | – |
